The values that follow come from patent US11213529B2, “Salt of substituted urea derivative and use thereof in medicine” (SUNSHINE LAKE PHARMA CO. LTD., priority 2017, dated 2022).

Data set [1] is described as follows: Pharmacokinetics experiments of the salts of compound (I), oral capsules. The class given is in vivo, Beagle dogs. Here is the method: The free base 1-(5-(tert-butyl)isoxazol-3-yl)-3-(4-((4-(3-morpholinopropoxy)phenyl) ethynyl)phenyl)urea, various salts or crystalline forms thereof were filled into capsules for oral administration respectively. Male Beagle dogs (6-10 kg) were grouped randomly, each group has 3, one was administered with free base by oral, others with various salts or crystalline forms thereof by oral at a dosage of 5 mg/kg. Blood samples were collected at 0.25, 0.5, 1.0, 2.0, 4.0, 6.0, 8.0, 12 and 24 hours after the administration. Standard curve was plotted based on concentrations of the samples in a suitable range, the concentrations of test compounds in plasma samples were determined by using Agilent 6430 LC-MS/MS under MRM mode, and quantitative analysis was performed. Pharmacokinetic parameters were calculated according to drug concentration-time curve using a noncompartmental method by WinNonLin 6.3 software.

The conditions of data set [2]: for Purity/%: HPLC. From the text: Samples were taken at fifth and tenth day, appearance was observed and purity was detected by HPLC.
For data set [3] the following is noted: for Appearance / Purity/%: illumination 4500±500 lx, UV; for Purity/%: HPLC.
Setting [4] is: male Beagle dogs, oral capsule, 5 mg/kg, plasma.
The mark [5] stands for this setting: High humidity (25° C., RH 90% ± 5%), 0 day.
Setting [6] is: High humidity (25° C., RH 90% ± 5%), 5 days.
[7] abbreviates: High humidity (25° C., RH 90% ± 5%), 10 days.
[8] abbreviates: High temperature (60° C. ± 2° C.), 0 day.
Setting [9] is: High temperature (60° C. ± 2° C.), 5 days.
Where [10] appears, read: High temperature (60° C. ± 2° C.), 10 days.
Setting [11] is: dog, male Beagle dogs, oral capsule, 5 mg/kg, plasma.

Structures are written as SMILES. Read-outs that look alike come from different tables or passages of the source.

For orientation: Cmax means the highest concentration seen after dosing. One may read the Tmax as the time at which the peak concentration occurs. For the molecule `CC(C)(C)c1cc(NC(=O)Nc2ccc(C#Cc3ccc(OCCCN4CCOCC4)cc3)cc2)no1.O=S(=O)(O)c1ccccc1` [Benzene sulfonate crystaline form I], in data set [1] (beagle dogs, oral 5 mg/kg), the absorption result is “faster”. Besides, the “exposure level compared with the free base” value in data set [1] (beagle dogs, oral 5 mg/kg) is “higher”. For the same molecule, in data set [1] (setting [4]), the AUCINF is 592 ng·h/mL. Moreover, the AUClast in data set [1] (setting [4]) was found to be 575 ng·h/mL. The Cmax in data set [1] (setting [4]) stood at 92.3 ng/mL. Also, the MRTINF in data set [1] (setting [4]) amounted to 6.55 h. Moreover, the T1/2 in data set [1] (setting [4]) was determined as 5.26 h. Further, in data set [1] (setting [4]), the time to peak (Tmax) is reported as 1 h. Also, the Appearance entry in data set [2] (setting [5]), in data set [2] (setting [6]), in data set [2] (setting [7]), in data set [2] (setting [8]), in data set [2] (setting [9]) and in data set [2] (setting [10]) was “yellow” throughout. Besides, the Appearance result in data set [3] (0 day), in data set [3] (5 days) and in data set [3] (13 days) was “yellow” in each case. Also, the Purity/% in data set [2] (setting [5]) stood at 98.61%; in data set [2] (setting [6]) it was 98.59%; in data set [2] (setting [7]) it was 98.59%; in data set [2] (setting [8]) it was 98.61%; in data set [2] (setting [9]) it was 98.64%; in data set [2] (setting [10]), 98.61%. For the same molecule, the Purity/% in data set [3] (0 day) is listed as 98.61%; in data set [3] (5 days) it was 98.67%; in data set [3] (13 days) it was 98.71%. Moreover, the Hygroscopic weight gain/% in data set [2] (setting [6]) is 0.388%; in data set [2] (setting [7]) it was 1.100%. Moreover, the hygroscopicity characteristics entry in data set [2] (from weight gain under high humidity for 10 days) is recorded as “slightly hygroscopicity (less than 2% but no less than 0.2%)”. In addition, the “change of appearance and purity” value is given as “have not been changed distinctly” in data set [2] (high humidity (25° C., RH 90%±5%)); “have not been changed distinctly” in data set [2] (high temperature (60° C.±2° C.)); “have not been changed distinctly” in data set [3] (illumination).

By AUC(0-inf) is commonly meant the area under the concentration-time curve extrapolated to infinity. The term AUC(0-t) denotes the area under the concentration-time curve up to a stated or last time point. The term MRT inf denotes a mean duration of stay, worked out from the concentration-time curve. As usually defined, the half-life is how long it takes for the measured level to halve. With `CC(C)(C)c1cc(NC(=O)Nc2ccc(C#Cc3ccc(OCCCN4CCOCC4)cc3)cc2)no1` [Free base, 1-(5-(tert-butyl)isoxazol-3-yl)-3-(4-((4-(3-morpholinopropoxy)phenyl)ethynyl)phenyl)urea], in data set [1] (setting [11]), the AUC(0-inf) was found to be 423 ng·h/mL, the AUC(0-t) came out at 389 ng·h/mL, the MRT inf was 7.52 h and the half-life was 5.95 h. Further, the Cmax in data set [1] (dog, male Beagle dogs, oral capsule, 5 mg/kg, plasma, read-out: Cmax) stood at 60.9 ng/mL. Also, the time of peak concentration (Tmax) in data set [1] (dog, male Beagle dogs, oral capsule, 5 mg/kg, plasma, read-out: Tmax) is 1.67 h.

For `Br.CC(C)(C)c1cc(NC(=O)Nc2ccc(C#Cc3ccc(OCCCN4CCOCC4)cc3)cc2)no1` [Hydrobromide crystaline form I], in data set [1] (setting [4]), the AUCINF came to 225 ng·h/mL, the AUClast worked out at 401 ng·h/mL, the Cmax was 36.4 ng/mL and the MRTINF is 8.54 h. Moreover, in data set [1] (setting [4]), the T1/2 is 6.64 h and the Tmax was 1.33 h.

With `CC(C)(C)c1cc(NC(=O)Nc2ccc(C#Cc3ccc(OCCCN4CCOCC4)cc3)cc2)no1.Cl` [Hydrochloride crystaline form I], in data set [1] (setting [4]), the AUCINF was determined as 371 ng·h/mL, the AUClast amounted to 358 ng·h/mL, the Cmax amounted to 51.2 ng/mL and the MRTINF is recorded as 6.5 h. Further, in data set [1] (setting [4]), the T1/2 was found to be 4.86 h and the Tmax turned out to be 1.67 h.
